The results in this text go back to US7544686B2, “Piperazinylalkylpyrazole derivatives useful as selective T-type calcium channel blockers and preparation method thereof” (Korea Institute of Science and Technology, priority 2005, dated 2009).

For one experiment, the target named is T1, α1G T-type Ca^2+ channel (Homo sapiens, UniProt O43497).
T1 construct: expressed in transfected cells; host or cells: HEK293 cells, G-418 selected
The experiment is described as follows: T-type Ca2+ channel blocking activity in HEK293 cells, whole-cell patch clamp. As to conditions: HEK293 cells expressing α1G; for inhibition at 10 µM: 10 μM (0.1% DMSO), peak current; for IC50: whole-cell patch clamp, -100 mV to -30 mV. The format is cell-based. As to the method: (§1) In order to evaluate the pharmaceutical effects induced by the compounds of the present invention, the inhibitory effects were examined according to the following procedure. As the first step, those that show more than 50% of inhibition to the calcium channel (α1H) expressed in Xenopus oocytes were screened. For the second step, α1G Ca^2+ channel activities expressed in HEK 293 cells were measured to determine the effective inhibition concentration IC50.
Measurement of T-type Ca^2+ Channel Blocking Activity of HEK293 Cells by Using Electrophysiological Method
The culture medium was prepared by adding 10% fetal bovine serum (FBS) and 1% penicillin/streptomycin (v/v) to Dulbecco's modified Eagle's medium (DMEM). The cells were cultured in an incubator having a wet condition of 95% air/5% CO2 at 37° C. The medium was replaced every 3 to 4 days and the cells were sub-cultured every week such that only the cells that expressed α1G T-type Ca^2+ channels could be grown using G-418 (0.5 mg/ml) solution. The cells that were used to measure T-type Ca^2+ channel activity were incubated on a cover slip coated by poly-L-lysine (0.5 mg/ml) every time they were sub-cultured and then recorded after 2 to 3 days. T-type Ca^2+ channel currents at the single-cell level were determined by the electrophysiological whole-cells patch clamp technique using EPC-9 amplifier (HEKA, German). Extracellular solution of NaCl 140 mM, CaCl2 2 mM, HEPES 10 mM (pH 7.4), and intracellular solution of KCl 130 mM, HEPES 10 mM, EGTA 11 mM, MgATP 5 mM (pH 7.4) were used for T-type Ca^2+ channel blocking activity. As the low voltage-activated T-type Ca^2+ channel activity protocol, a fine glass electrode of 3-4 MΩ resistance containing the above-prepared intracellular solution was inserted into a single cell to become the whole-cell recording mode, followed by fixing the potential of the cell membrane at −100 mV and measuring the inward current of the T-type Ca^2+ channel activity when […] at −30 mV (50 ms duration) every 15 seconds. Each compound was dissolved in 100% dimethylsulfoxide (DMSO) to prepare 10 mM stock solution, and then the effect of T-type Ca^2+ channel current at 1,000 fold diluted concentration of 10 μM (including 0.1% DMSO) was initially measured before IC50 values were determined by testing the effects at the concentration range for the IC50 measurement (in general, 0.1-100 μM). Specifically, cells were treated with each compound along with the extracellular solution until T-type Ca^2+ channel currents were stabilized under whole-cell voltage-clamp conditions and the inhibition level of the peak current due to the compound was calculated and expressed in percentage.
(In general: Patch clamp records ionic current or voltage across a cell membrane.)

In a further experiment the target is T2, calcium channel (α1H) (Homo sapiens, UniProt O95180).
T2 construct: expressed in transfected cells; host or cells: Xenopus oocytes
T2 sequence (O95180 whole entry): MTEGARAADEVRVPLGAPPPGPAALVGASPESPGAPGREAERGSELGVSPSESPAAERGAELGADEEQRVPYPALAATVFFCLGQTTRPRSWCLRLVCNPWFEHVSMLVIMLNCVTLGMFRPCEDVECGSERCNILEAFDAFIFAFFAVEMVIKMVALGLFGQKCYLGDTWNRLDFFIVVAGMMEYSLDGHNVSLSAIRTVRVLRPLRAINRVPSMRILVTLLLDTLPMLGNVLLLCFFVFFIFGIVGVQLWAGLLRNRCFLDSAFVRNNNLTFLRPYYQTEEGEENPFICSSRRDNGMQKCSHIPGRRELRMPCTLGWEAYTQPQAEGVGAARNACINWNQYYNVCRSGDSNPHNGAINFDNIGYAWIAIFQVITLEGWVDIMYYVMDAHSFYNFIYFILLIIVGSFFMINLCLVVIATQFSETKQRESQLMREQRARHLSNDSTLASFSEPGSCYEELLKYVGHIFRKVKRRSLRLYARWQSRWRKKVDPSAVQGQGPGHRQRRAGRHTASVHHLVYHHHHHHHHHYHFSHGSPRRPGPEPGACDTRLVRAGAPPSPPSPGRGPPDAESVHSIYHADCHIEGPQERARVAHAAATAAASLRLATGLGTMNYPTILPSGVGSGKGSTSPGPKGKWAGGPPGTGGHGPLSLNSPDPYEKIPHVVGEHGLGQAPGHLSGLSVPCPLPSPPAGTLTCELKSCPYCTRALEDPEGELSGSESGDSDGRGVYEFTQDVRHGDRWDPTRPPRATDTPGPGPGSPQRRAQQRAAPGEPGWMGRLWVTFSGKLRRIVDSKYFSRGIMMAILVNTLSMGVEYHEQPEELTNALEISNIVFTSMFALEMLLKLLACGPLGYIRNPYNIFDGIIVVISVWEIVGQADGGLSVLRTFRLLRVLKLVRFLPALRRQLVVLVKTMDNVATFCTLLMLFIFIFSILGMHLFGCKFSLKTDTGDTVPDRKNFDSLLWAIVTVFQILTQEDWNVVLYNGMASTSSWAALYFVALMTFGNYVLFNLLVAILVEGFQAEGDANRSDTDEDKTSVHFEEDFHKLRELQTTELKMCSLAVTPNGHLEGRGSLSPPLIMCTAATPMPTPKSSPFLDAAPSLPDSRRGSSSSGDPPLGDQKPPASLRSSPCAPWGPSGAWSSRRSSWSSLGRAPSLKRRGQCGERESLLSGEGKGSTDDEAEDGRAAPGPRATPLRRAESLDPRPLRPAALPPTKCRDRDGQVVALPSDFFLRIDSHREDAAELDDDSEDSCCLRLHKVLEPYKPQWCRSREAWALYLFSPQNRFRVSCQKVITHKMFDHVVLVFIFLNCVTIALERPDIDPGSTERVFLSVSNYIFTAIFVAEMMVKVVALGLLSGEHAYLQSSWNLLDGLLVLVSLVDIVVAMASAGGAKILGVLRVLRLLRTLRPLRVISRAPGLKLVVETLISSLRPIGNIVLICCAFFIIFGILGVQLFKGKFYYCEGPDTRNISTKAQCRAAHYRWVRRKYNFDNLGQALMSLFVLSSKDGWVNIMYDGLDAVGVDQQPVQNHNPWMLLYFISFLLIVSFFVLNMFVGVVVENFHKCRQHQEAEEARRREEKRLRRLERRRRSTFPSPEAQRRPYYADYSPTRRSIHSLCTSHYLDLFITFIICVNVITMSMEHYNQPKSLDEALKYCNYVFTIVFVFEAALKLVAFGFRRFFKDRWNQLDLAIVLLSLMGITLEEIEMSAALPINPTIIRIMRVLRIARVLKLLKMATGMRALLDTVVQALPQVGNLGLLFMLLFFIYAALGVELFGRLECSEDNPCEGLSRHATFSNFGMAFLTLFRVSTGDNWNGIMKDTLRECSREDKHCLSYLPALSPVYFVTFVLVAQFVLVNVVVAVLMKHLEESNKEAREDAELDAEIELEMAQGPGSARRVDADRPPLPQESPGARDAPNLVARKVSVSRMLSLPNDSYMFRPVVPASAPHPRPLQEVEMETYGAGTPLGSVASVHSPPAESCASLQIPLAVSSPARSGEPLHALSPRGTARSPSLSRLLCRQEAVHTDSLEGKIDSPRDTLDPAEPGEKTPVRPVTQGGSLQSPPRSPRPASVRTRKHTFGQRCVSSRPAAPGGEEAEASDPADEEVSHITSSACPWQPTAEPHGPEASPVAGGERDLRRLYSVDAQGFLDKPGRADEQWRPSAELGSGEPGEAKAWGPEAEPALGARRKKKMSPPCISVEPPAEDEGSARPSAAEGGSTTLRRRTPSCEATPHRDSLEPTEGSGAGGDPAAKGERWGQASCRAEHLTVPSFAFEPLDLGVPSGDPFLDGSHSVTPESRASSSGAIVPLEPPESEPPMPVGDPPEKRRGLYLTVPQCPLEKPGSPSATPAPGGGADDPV
Nature of the experiment: Inhibition of calcium channel (α1H) expressed in Xenopus oocytes (first-step screen). The format is cell-based. As to conditions: read-out: % Inhibition in oocyte (100 μM). As to the method:
as §1

T1 sequence (O43497 whole entry): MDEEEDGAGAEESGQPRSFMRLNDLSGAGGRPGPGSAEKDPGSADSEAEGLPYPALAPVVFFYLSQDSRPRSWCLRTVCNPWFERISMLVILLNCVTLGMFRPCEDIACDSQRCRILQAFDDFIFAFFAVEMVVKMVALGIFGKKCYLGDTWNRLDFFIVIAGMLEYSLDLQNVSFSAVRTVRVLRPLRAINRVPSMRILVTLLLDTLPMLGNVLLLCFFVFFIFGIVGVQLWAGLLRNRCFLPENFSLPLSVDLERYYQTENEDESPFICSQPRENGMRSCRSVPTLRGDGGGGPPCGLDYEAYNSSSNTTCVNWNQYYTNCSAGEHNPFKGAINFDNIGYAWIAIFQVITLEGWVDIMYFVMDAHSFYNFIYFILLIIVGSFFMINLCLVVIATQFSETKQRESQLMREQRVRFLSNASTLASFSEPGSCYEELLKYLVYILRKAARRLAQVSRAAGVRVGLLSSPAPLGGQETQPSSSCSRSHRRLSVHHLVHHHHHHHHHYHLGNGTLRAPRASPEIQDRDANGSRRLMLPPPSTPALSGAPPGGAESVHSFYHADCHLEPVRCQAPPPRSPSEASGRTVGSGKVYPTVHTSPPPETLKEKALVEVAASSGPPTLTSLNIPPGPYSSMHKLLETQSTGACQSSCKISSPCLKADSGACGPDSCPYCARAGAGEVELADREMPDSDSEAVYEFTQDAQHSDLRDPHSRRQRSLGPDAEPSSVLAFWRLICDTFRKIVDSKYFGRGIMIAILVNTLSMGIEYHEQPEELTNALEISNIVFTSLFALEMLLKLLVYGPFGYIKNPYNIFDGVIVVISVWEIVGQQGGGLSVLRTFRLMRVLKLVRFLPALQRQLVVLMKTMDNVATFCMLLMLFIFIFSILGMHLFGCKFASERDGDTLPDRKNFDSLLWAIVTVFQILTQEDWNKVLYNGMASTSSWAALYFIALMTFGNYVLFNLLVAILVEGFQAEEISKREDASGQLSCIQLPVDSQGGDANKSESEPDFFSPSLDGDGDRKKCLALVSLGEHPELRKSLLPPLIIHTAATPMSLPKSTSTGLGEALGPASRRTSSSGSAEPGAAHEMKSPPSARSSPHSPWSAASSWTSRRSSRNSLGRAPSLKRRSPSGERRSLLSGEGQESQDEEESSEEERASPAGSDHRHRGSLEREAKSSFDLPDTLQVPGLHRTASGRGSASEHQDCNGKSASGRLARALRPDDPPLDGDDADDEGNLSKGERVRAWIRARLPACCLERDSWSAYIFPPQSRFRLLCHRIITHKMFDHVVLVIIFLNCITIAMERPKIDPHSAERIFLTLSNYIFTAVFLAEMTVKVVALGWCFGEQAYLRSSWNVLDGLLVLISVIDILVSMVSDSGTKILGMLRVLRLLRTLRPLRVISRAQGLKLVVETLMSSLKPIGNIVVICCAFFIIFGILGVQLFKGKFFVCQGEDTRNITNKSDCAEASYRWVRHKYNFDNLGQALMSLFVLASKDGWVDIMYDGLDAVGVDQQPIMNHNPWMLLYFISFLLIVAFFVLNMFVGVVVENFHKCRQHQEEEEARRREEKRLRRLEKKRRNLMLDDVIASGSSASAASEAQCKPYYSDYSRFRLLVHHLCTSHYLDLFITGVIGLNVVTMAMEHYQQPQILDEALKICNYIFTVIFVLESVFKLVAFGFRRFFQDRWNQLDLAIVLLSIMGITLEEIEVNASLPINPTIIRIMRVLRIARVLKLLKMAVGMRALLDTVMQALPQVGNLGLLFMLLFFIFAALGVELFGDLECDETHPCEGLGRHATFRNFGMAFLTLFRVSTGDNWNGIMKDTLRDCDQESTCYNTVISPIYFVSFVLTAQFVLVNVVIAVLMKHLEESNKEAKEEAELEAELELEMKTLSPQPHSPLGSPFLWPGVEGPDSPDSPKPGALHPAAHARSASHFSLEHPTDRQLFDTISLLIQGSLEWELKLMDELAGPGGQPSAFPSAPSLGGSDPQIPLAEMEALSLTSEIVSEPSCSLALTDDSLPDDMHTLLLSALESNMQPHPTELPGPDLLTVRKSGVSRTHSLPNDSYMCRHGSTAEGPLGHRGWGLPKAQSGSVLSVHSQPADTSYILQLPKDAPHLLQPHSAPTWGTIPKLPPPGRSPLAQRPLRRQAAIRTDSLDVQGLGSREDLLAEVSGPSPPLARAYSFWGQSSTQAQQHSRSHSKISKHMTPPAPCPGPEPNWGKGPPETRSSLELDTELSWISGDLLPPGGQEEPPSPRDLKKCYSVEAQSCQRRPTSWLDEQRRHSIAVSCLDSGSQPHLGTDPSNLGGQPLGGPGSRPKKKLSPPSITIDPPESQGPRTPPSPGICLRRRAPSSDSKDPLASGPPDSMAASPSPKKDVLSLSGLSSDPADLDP

Usually inhibition stands for the percentage by which the read-out fell short of the control. Usually IC50 stands for the point on the concentration scale where inhibition reaches its midpoint. A lower IC50 goes with inhibition by little substance. On α1G T-type Ca^2+ channel, `CCCc1cc(CNCCN2CCN(c3cccc(Cl)c3)CC2)nn1-c1ccccc1` [compound 76, 3-{2-[4-(3-chlorophenyl)piperazin-1-yl]ethyl}aminomethyl-1-phenyl-5-propylpyrazole] showed an inhibition at 10 µM of 75.8 ± 1% and an IC50 of 900 ± 90 nM. Moreover, the inhibition at 100 µM on calcium channel (α1H) was 44.7%.

As to `CC(C)Cc1cc(CNCCN2CCN(c3ccc([N+](=O)[O-])cc3)CC2)nn1-c1ccccc1` [compound 53, 5-iso-butyl-3-{2-[4-(4-nitrophenyl)piperazin-1-yl]ethyl}aminomethyl-1-phenylpyrazole], at α1G T-type Ca^2+ channel, 10 µM produced 94.8 ± 1.3% inhibition and inhibition was half-maximal at 1060 ± 20 nM (IC50). On calcium channel (α1H), the inhibition at 100 µM amounted to 74.4%.

For `CCCc1cc(CNCCN2CCN(C(c3ccccc3)c3ccccc3)CC2)nn1C(C)(C)C` [compound 82, 1-t-butyl-3-{2-[4-(4-diphenylmethyl)piperazin-1-yl]ethyl}aminomethyl-5-propyl pyrazole], at α1G T-type Ca^2+ channel, the inhibition at 10 µM was 60.5 ± 0.6% and the IC50 was 4420 ± 890 nM. For the same compound, on calcium channel (α1H), the inhibition at 100 µM is 24.8%.

Turning to `COc1ccc(N2CCN(CCNCc3cc(C)n(-c4ccccc4)n3)CC2)cc1` [compound 37, 3-{2-[4-(4-methoxyphenyl)piperazin-1-yl]ethyl}aminomethyl-5-methyl-1-phenylpyrazole], on α1G T-type Ca^2+ channel, the inhibition at 10 µM was determined as 53 ± 1.6% and the IC50 was determined as 9410 ± 550 nM.

On α1G T-type Ca^2+ channel, `Cc1cc(CNCCN2CCN(C(c3ccccc3)c3ccccc3)CC2)nn1-c1ccccc1` [compound 81, 3-{2-[4-(4-diphenylmethyl)piperazin-1-yl]ethyl}aminomethyl-5-methyl-1-phenylpyrazole] registered an inhibition at 10 µM of 97.4 ± 1.3% and an IC50 of 570 ± 60 nM. For the same compound, the inhibition at 100 µM at calcium channel (α1H) is 95.4%.

Consider `CCCc1cc(CNCCN2CCN(C(c3ccccc3)c3ccccc3)CC2)nn1-c1ccccc1` [compound 83, 3-{2-[4-(4-diphenylmethyl)piperazin-1-yl]ethyl}aminomethyl-1-phenyl-5-propylpyrazole], for which, at α1G T-type Ca^2+ channel, testing at 10 µM gave an inhibition of 92.4 ± 1.8% and the IC50 is 300 ± 40 nM. Also, at calcium channel (α1H), the inhibition at 100 µM is 97.8%.

`CC(C)Cc1cc(CNCCN2CCN(C(c3ccccc3)c3ccccc3)CC2)nn1C(C)(C)C` [compound 84, 1-t-butyl-5-iso-butyl-3-{2-[4-(4-diphenylmethyl)piperazin-1-yl]ethyl}aminomethylpyrazole]: at α1G T-type Ca^2+ channel, 10 µM produced 89.9 ± 0.3% inhibition and the IC50 worked out at 2190 ± 30 nM. In addition, the inhibition at 100 µM at calcium channel (α1H) was 40.4%.

On α1G T-type Ca^2+ channel, `CCCc1cc(CNCCN2CCN(c3ccccc3)CC2)nn1-c1ccccc1` [compound 4, 5-propyl-1-phenyl-3-[2-(4-phenylpiperazin-1-yl)ethyl]aminomethylpyrazole] came in with an inhibition at 10 µM of 94.5 ± 2.8% and an IC50 of 300 ± 30 nM. In addition, the inhibition at 100 µM at calcium channel (α1H) turned out to be 80.1%.

On to `CCCc1cc(CNCCN2CCN(c3cccc(C)c3C)CC2)nn1C(C)(C)C` [compound 15, 1-t-butyl-3-{2-[4-(2,3-dimethylphenyl)piperazin-1-yl]ethyl}aminomethyl-5-propylpyrazole], for which, on α1G T-type Ca^2+ channel, the inhibition at 10 µM was found to be 79.4 ± 1.6% and the IC50 was found to be 1430 ± 150 nM. On calcium channel (α1H), the inhibition at 100 µM was determined as 27.5%.

Regarding `Cc1cccc(N2CCN(CCNCc3cc(CC(C)C)n(-c4ccccc4)n3)CC2)c1C` [compound 18, 5-iso-butyl-3-{2-[4-(2,3-dimethylphenyl)piperazin-1-yl]ethyl}aminomethyl-1-phenylpyrazole], at α1G T-type Ca^2+ channel, the inhibition at 10 µM stood at 92.7 ± 5.7% and the IC50 came to 1020 ± 100 nM. Moreover, the inhibition at 100 µM at calcium channel (α1H) is 92%.

Consider `CCCc1cc(CNCCN2CCN(c3cccc(C)c3C)CC2)nn1-c1ccccc1` [compound 16, 3-{2-[4-(2,3-dimethylphenyl)piperazin-1-yl]ethyl}aminomethyl-1-phenyl-5-propylpyrazole], for which, on α1G T-type Ca^2+ channel, at 10 µM the inhibition was 95.9 ± 0.7% and the IC50 stood at 580 ± 50 nM. The inhibition at 100 µM on calcium channel (α1H) is 74.6%.

Regarding `Cc1cc(CNCCN2CCN(C(c3ccccc3)c3ccc(Cl)cc3)CC2)nn1-c1ccccc1` (stereo not shown) [compound 92, 3-{2-[4-(4-chlorobenzhydryl)piperazin-1-yl]ethyl}aminomethyl-5-methyl-1-phenylpyrazole], on α1G T-type Ca^2+ channel, at 10 µM the inhibition was 79.2 ± 3.3% and the IC50 was determined as 330 ± 660 nM. Also, the inhibition at 100 µM on calcium channel (α1H) came to 34.5%.

`CC(C)Cc1cc(CNCCN2CCN(c3ccccc3)CC2)nn1-c1ccccc1` [compound 7, 5-iso-butyl-1-phenyl-3-[2-(4-phenylpiperazin-1-yl)ethyl]aminomethylpyrazole]: on α1G T-type Ca^2+ channel, the inhibition at 10 µM was determined as 87.9 ± 2.7% and the IC50 was determined as 820 ± 40 nM. Besides, on calcium channel (α1H), the inhibition at 100 µM was found to be 77.1%.

In turn, `CC(C)Cc1cc(CNCCN2CCN(c3ccc([N+](=O)[O-])cc3)CC2)nn1C(C)(C)C` [compound 52, 1-t-butyl-5-iso-butyl-3-{2-[4-(4-nitrophenyl)piperazin-1-yl]ethyl}aminomethylpyrazole] displayed a concentration for half-maximal inhibition (IC50) at α1G T-type Ca^2+ channel of 1770 ± 200 nM. Further, the inhibition at 100 µM at calcium channel (α1H) was 56.4%.

At α1G T-type Ca^2+ channel, `CCCc1cc(CNCCN2CCN(C(c3ccccc3)c3ccc(Cl)cc3)CC2)nn1-c1ccccc1` (stereo not shown) [compound 94, 3-{2-[4-(4-chlorobenzhydryl)piperazin-1-yl]ethyl}aminomethyl-1-phenyl-5-propylpyrazole] returned an inhibition at 10 µM of 100% and an IC50 of 650 ± 30 nM. In addition, the inhibition at 100 µM on calcium channel (α1H) came out at 92.9%.

In the case of `CCCc1cc(CNCCN2CCN(c3ccc([N+](=O)[O-])cc3)CC2)nn1-c1ccccc1` [compound 51, 3-{2-[4-(4-nitrophenyl)piperazin-1-yl]ethyl}aminomethyl-1-phenyl-5-propylpyrazole], on α1G T-type Ca^2+ channel, the inhibition at 10 µM was 95.3 ± 1.4% and the IC50 was 660 ± 70 nM. For the same compound, the inhibition at 100 µM at calcium channel (α1H) came to 51.3%.

Consider `COc1ccc(N2CCN(CCNCc3cc(CC(C)C)n(-c4ccccc4)n3)CC2)cc1` [compound 42, 5-iso-butyl-3-{2-[4-(4-methoxyphenyl)piperazin-1-yl]ethyl}aminomethyl-1-phenyl pyrazole], for which, at α1G T-type Ca^2+ channel, testing at 10 µM gave an inhibition of 95.6 ± 1.8% and the IC50 was 1040 ± 150 nM. The inhibition at 100 µM on calcium channel (α1H) came out at 73.3%.

At α1G T-type Ca^2+ channel, `CCCc1cc(CNCCN2CCN(c3ccccc3F)CC2)nn1-c1ccccc1` [compound 63, 3-{2-[4-(2-fluorophenyl)piperazin-1-yl]ethyl}aminomethyl-1-phenyl-5-propylpyrazole] gave an inhibition at 10 µM of 93.8 ± 1.4% and an IC50 of 660 ± 40 nM. Also, the inhibition at 100 µM at calcium channel (α1H) turned out to be 54.9%.

With `CCCc1cc(CNCCN2CCN(c3ccc(OC)cc3)CC2)nn1-c1ccccc1` [compound 39, 3-{2-[4-(4-methoxyphenyl)piperazin-1-yl]ethyl}aminomethyl-5-propyl-1-phenylpyrazole], on α1G T-type Ca^2+ channel, the inhibition at 10 µM came to 91.6 ± 0.5% and the IC50 is 900 ± 70 nM. On calcium channel (α1H), the inhibition at 100 µM was 67.8%.
